# Measurements from ChEMBL document CHEMBL5625204, “Synthesis and pharmacodynamic evaluation of naphthalene derivatives against influenza A virus in vitro and in vivo” (Eur J Med Chem, 2023).
# Active and inactive are the calls of the source. The rule behind the calls is not given here.
# Legend:
# Influenza A virus [1] = experiment: Antiviral activity against Influenza A virus H1N1 infected in human A549 cells assessed as decrease in RIG-1 pathway related gene expression by measuring decrease in IRF3 gene expression at 25 to 50 uM measured after 24 hrs by qRT-PCR analysis; type: functional, organism-based; details: dose 25-50 µM
# Influenza A virus [2] = experiment: Antiviral activity against Influenza A virus H1N1 infected in human A549 cells assessed as decrease in cytokine gene expression by measuring decrease in IL-6 gene expression at 25 to 50 uM measured after 24 hrs by qRT-PCR analysis; type: functional, organism-based; details: dose 25-50 µM
# Influenza A virus [3] = experiment: Antiviral activity against Influenza A virus H1N1 infected in dog MDCK cells assessed as decrease in apoptosis by measuring proportion of late apoptotic cells at 50 uM measured after 72 hrs by AnnexinV-FITC/PI staining based flow cytometry (reference value: 10.3%); type: functional; design: scale not given: the % may be the effect or the level left
# Influenza A virus [4] = experiment: Antiviral activity against Influenza A virus H1N1 infected in human A549 cells assessed as decrease in RIG-1 pathway related gene expression by measuring decrease in MAVS gene expression at 25 to 50 uM measured after 24 hrs by qRT-PCR analysis; type: functional, organism-based; details: dose 25-50 µM
# Influenza A virus [5] = experiment: Antiviral activity against Influenza A virus H1N1 infected in human A549 cells assessed as decrease in apoptosis by measuring decrease in Bax to Bcl-2 ratio at 25 to 50 uM measured after 24 hrs by western blot analysis; type: functional, organism-based; details: dose 25-50 µM
# Influenza A virus [6] = experiment: Antiviral activity against Influenza A virus H1N1 infected in human A549 cells assessed as decrease in incompleted autophagy by measuring increase in p62 protein expression at 25 to 50 uM measured after 24 hrs by western blot analysis; type: functional, organism-based; details: dose 25-50 µM
# Influenza A virus [7] = experiment: Antiviral activity against Influenza A virus H1N1 (A/Weiss/43)-infected in BALB/c mouse assessed as reduction in lung index at 100 mg/kg/day administered intranasally for 6 days starting from 3 hrs post-viral infection; type: functional; details: 144 h, route nas, time 6 day
# [8] = Toxicity in dog MDCK cells assessed as proportion of early apoptotic cells at 50 uM measured after 72 hrs by AnnexinV-FITC/PI staining based flow cytometry (reference value: 4.51%); type: cell-based, Canis lupus familiaris
# Erythrocyte = experiment: Inhibition of Hemagglutinin2 in Influenza A virus assessed as inhibition of virus-induced hemolysis at 7.81 to 250 uM pretreated with virus for 30 mins followed by chicken RBC addition and measured after 30 mins; type: cell-based; details: dose 7.81-250 µM, time 60.0 min
# Influenza A virus [9] = experiment: Antiviral activity against Influenza A virus H1N1 (A/Weiss/43)-infected in BALB/c mouse assessed as reduction in Mx1 gene expression in lungs at 25 to 100 mg/kg/day administered intranasally for 6 days starting from 3 hrs post-viral infection by qRT-PCR analysis; type: functional, organism-based; details: dose 25-100 mg/kg/day, route nas, time 6.0 day
# Influenza A virus [10] = experiment: (§1) Antiviral activity against Influenza A virus H1N1 (A/Weiss/43)-infected in dog MDCK cells assessed as reduction in oxidative stress by measuring proportion of normal cells at 25 uM treated at 2 hrs post-infection and measured after 36 hrs by DCFH-DA staining based flow cytometry (reference value: 69.4%); type: functional; design: scale not given: the % may be the effect or the level left
# Influenza A virus [11] = experiment: Antiviral activity against Influenza A virus H1N1 (A/Weiss/43)-infected in BALB/c mouse assessed as reduction in lung index at 50 mg/kg/day administered intranasally for 6 days starting from 3 hrs post-viral infection; type: functional; details: 144 h, route nas, time 6 day
# [12] = Toxicity in BALB/c mouse infected with Influenza A virus H1N1 (A/Weiss/43) assessed as liver pathological changes at 25 to 100 mg/kg/day administered intranasally for 6 days starting from 3 hrs post-viral infection by Hematoxylin-Eosin staining based analysis; type: organism-based; details: in vivo, inhaled_or_intranasal, 144 h, dose 25-100 mg/kg/day, time 6 day
# [13] = Toxicity in dog MDCK cells assessed as ROS production by measuring proportion of cells with excessive ROS accumulation at 50 uM measured after 36 hrs by DCFH-DA staining based flow cytometry (reference value: 0.094%); type: cell-based, Canis lupus familiaris
# Influenza A virus [14] = experiment: Antiviral activity against Influenza A virus H1N1 (A/Weiss/43)-infected in BALB/c mouse assessed as reduction in RIG-1 gene expression in lungs at 25 to 100 mg/kg/day administered intranasally for 6 days starting from 3 hrs post-viral infection by qRT-PCR analysis; type: functional, organism-based; details: dose 25-100 mg/kg/day, route nas, time 6.0 day
# Influenza A virus [15] = experiment: Antiviral activity against Influenza A virus H1N1 infected in dog MDCK cells assessed as decrease in apoptosis by measuring proportion of early apoptotic cells at 25 uM measured after 72 hrs by AnnexinV-FITC/PI staining based flow cytometry (reference value: 24.3%); type: functional; design: scale not given: the % may be the effect or the level left
# Influenza A virus [16] = experiment: Antiviral activity against Influenza A virus H1N1 (A/Weiss/43)-infected in BALB/c mouse assessed as reduction in TLR-7 gene expression in lungs at 25 to 100 mg/kg/day administered intranasally for 6 days starting from 3 hrs post-viral infection by qRT-PCR analysis; type: functional, organism-based; details: dose 25-100 mg/kg/day, route nas, time 6.0 day
# Influenza A virus [17] = experiment: Antiviral activity against Influenza A virus H1N1 infected in human A549 cells assessed as decrease in apoptosis by measuring decrease in cleaved caspase-7 protein expression at 25 to 50 uM measured after 24 hrs by western blot analysis; type: functional, organism-based; details: dose 25-50 µM
# Influenza A virus [18] = experiment: Inhibition of Influenza A virus replication infected in dog MDCK cells assessed as downregulation of virus NP gene expression at 25 to 50 uM measured after 24 to 72 hrs post-infection by qRT-PCR analysis; type: functional, organism-based; details: dose 25-50 µM
# Influenza A virus [19] = experiment: Antiviral activity against Influenza A virus H1N1 infected in human A549 cells assessed as decrease in apoptosis by measuring decrease in cleaved PARP protein expression at 25 to 50 uM measured after 24 hrs by western blot analysis; type: functional, organism-based; details: dose 25-50 µM
# [20] = Selectivity index, ratio of CC50 for dog MDCK cells to EC50 for antiviral activity against Influenza A virus H1N1 (A/Weiss/43) infected in MDCK cells treated for 2 hrs during viral adsorption and measured after 72 hrs; type: toxicity, cell-based; details: read-out: Ratio CC50/EC50
# Influenza A virus [21] = experiment: Antiviral activity against Influenza A virus H1N1 (A/Weiss/43)-infected in BALB/c mouse assessed as improvement in body weight at 25 to 100 mg/kg/day administered intranasally for 6 days starting from 3 hrs post-viral infection; type: functional, organism-based; details: dose 25-100 mg/kg/day, route nas, time 6.0 day
# Influenza A virus [22] = experiment: Antiviral activity against Influenza A virus H1N1 infected in dog MDCK cells assessed as decrease in apoptosis by measuring proportion of necrotic cells at 50 uM measured after 72 hrs by AnnexinV-FITC/PI staining based flow cytometry (reference value: 2.47%); type: functional; design: scale not given: the % may be the effect or the level left
# Influenza A virus [23] = experiment: Antiviral activity against Influenza A virus H3N2 (A/California/2004) infected in MDCK cells assessed as reduction of viral replication incubated for 72 hrs by TCID50 method; type: functional, organism-based
# Influenza A virus [24] = experiment: Antiviral activity against Influenza A virus H1N1 infected in human A549 cells assessed as decrease in apoptosis inducing factor gene expression by measuring decrease in FasL gene expression at 25 to 50 uM measured after 24 hrs by qRT-PCR analysis; type: functional, organism-based; details: dose 25-50 µM
# Influenza A virus [25] = experiment: Antiviral activity against Influenza A virus H1N1 (A/Weiss/43)-infected in BALB/c mouse assessed as reduction in IL-8 gene expression in lungs at 25 to 100 mg/kg/day administered intranasally for 6 days starting from 3 hrs post-viral infection by qRT-PCR analysis; type: functional, organism-based; details: dose 25-100 mg/kg/day, route nas, time 6.0 day
# Influenza A virus [26] = experiment: as §1, with “50” for “25”; type: functional; design: scale not given: the % may be the effect or the level left
smiles,measurement,setting,value
O=[N+]([O-])c1ccc(S(=O)(=O)N(Cc2ccccc2)c2cccc3ccccc23)cc1,inhibition,Influenza A virus [1],Active
same,inhibition,Influenza A virus [2],Active
same,Activity,Influenza A virus [3],1.09%
same,inhibition,Influenza A virus [4],Active
same,inhibition,Influenza A virus [5],Active
same,inhibition,Influenza A virus [6],Active
same,inhibition in vivo at 100 mg/kg/day,Influenza A virus [7],43.3%
same,Activity,[8],1.56%
same,inhibition,Erythrocyte,inactive
same,Activity,Influenza A virus [9],Active
same,Activity,Influenza A virus [10],87.7%
same,inhibition in vivo at 50 mg/kg/day,Influenza A virus [11],28.8%
same,Activity,[12],Non-Toxic
same,Activity,[13],1.36%
same,Activity,Influenza A virus [14],Active
same,Activity,Influenza A virus [15],2.55%
same,Activity,Influenza A virus [16],Active
same,inhibition,Influenza A virus [17],Active
same,inhibition,Influenza A virus [18],Active
same,inhibition,Influenza A virus [19],Active
same,selectivity ratio at 72 h,[20],> 131
same,Activity,Influenza A virus [21],Active
same,Activity,Influenza A virus [22],0.6%
same,EC50,Influenza A virus [23],6.61 µM
same,inhibition,Influenza A virus [24],Active
same,Activity,Influenza A virus [25],Active
same,Activity,Influenza A virus [26],95.3%
